SMILES strings stand for the structures.

The results in this text go back to paper PMC11191602, “A novel and selective fluorescent ligand for the study of adenosine A2B receptors” (Pharmacology Research & Perspectives, 2024).

Assay [1] deals with T1, NLuc‐A2BR (Homo sapiens, UniProt P29275).
T1 construct: expressed in transfected cells
T1 sequence (P29275 1-332): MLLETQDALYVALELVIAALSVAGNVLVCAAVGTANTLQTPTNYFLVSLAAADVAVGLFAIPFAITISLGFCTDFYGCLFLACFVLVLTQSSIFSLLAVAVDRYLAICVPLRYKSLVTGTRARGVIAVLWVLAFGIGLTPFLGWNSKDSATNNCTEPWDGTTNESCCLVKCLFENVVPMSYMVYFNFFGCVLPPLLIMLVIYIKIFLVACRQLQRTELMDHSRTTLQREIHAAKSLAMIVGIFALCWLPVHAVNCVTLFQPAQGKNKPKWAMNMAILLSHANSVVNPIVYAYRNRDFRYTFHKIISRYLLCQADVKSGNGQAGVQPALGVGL
The experiment in a line: cAMP GloSensor luminescence assay in HEK293G cells overexpressing NLuc‐A2BR. In kind it is cell-based. The conditions noted are these: 20 nM and 200 nM PSB603‐BY630, overexpressed NLuc‐A2BR. As for the experimental part:
The cAMP GloSensor™ luminescence assay was performed according to the manufacturer's instructions (Promega Corporation, Madison, WI, USA). Briefly, after 24 h incubation at 37°C and 5% CO2 after cell plating (40 000 cells/well in 100 μL), medium was aspirated from each well of the 96‐well plate. Cells were incubated in 50 μL HEPES buffered saline solution (HBSS; 2 mM sodium pyruvate, 145 mM NaCl, 10 mM D‐glucose, 5 mM KCl, 1 mM MgSO4.7H2O, 10 mM HEPES, 1.3 mM CaCl2, 1.5 mM NaHCO3 in double‐distilled water, pH 7.45) containing 3% GloSensor™ cAMP reagent at 37°C for 1.5 h. For agonist studies, an initial baseline luminescence read was made at time zero, the plate was then removed from the plate‐reader and a further 50 μL HBSS containing agonist (2× final concentration) or HBSS (vehicle control) added. Luminescence was measured on an open channel (gain of 3600) immediately after these additions, and then continuously over 60 min, reading each well once every minute, by a PHERAstar FSX microplate reader (BMG Labtech, Offenburg, Germany) at 37°C. Increases in luminescence are indicative of intracellular cAMP accumulation, thus the temporal changes in relative cytosolic cAMP concentration were measured upon agonist or vehicle addition. Antagonist action was determined following 30 min pre‐incubation of HBSS in the presence of 20 and 200 nM PSB603‐BY630 and read as above. All conditions were performed in triplicates within each plate.

Assay [2] addresses T2, human NLuc‐A1R (Homo sapiens, UniProt P30542).
T2 construct: expressed in transfected cells
T2 sequence (P30542 1-326): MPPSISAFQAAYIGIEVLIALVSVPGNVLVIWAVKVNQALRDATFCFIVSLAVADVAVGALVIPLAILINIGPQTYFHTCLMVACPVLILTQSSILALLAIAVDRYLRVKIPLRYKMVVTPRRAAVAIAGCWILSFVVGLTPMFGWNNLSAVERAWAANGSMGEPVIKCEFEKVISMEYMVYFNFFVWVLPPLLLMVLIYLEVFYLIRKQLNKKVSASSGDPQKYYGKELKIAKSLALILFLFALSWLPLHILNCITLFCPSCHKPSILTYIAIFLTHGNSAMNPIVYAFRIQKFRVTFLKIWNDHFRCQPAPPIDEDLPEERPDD
The assay is described as follows: NanoBRET saturation binding in stable HEK293T cell line expressing NLuc‐A1R. As to conditions: non‐specific defined with 1 μM SLV320; PSB603‐BY630 at concentrations up to 500 nM. As for the experimental part:
(§1) Saturation and competition binding assays were performed as previously described.[36] Briefly, cells were seeded in 96‐well white clear‐bottomed Greiner plates pre‐treated with 10 μg/mL poly‐D‐lysine (Sigma‐Aldrich, Missouri USA) at a density of 30 000–35 000 cells per well in DMEM supplemented with 10% FBS. […] The NanoLuc substrate, furimazine (Promega Corporation, Wisconsin, USA), was then added to each well (1:400 dilution) and the plate was incubated for 10 min in the dark at 37°C. The resulting bioluminescence resonance energy transfer (BRET) was measured using a PHERAstar FS plate reader (BMG Labtech) at 37°C. For each well, filtered light emissions at 460 nm (80 nm bandpass) and >610 nm (longpass) for the BODIPY630/650 ligand were simultaneously measured. BRET ratios were calculated by dividing the 610 nm emission by the 460 nm emission. All conditions were performed in 2–6 replicates within each plate. For kinetic experiments, cells were preincubated for 10 min with 1:400 dilution of furimazine prior to addition of 200 nM PSB603‐BY630 and BRET ratios determined every 0.5 min. At 60 min, 10 μM MRS‐1706 was added and the ligand‐binding kinetics followed for a further 60 min.

Assay [3] addresses T3, human NLuc‐A2AR (Homo sapiens, UniProt P29274).
T3 construct: expressed in transfected cells; host or cells: HEK293G, transient transfection with pcDNA3.1 NLuc-A2AR (FuGENE HD)
The experiment in a line: NanoBRET saturation binding in HEK293G cells transiently transfected with NLuc‐A2AR. The conditions noted are these: non‐specific defined with 1 μM SCH58261; PSB603‐BY630 at concentrations up to 500 nM. As for the experimental part: The human A2A receptor cDNA was obtained from Missouri S&T cDNA Resource Centre (www.cdna.org) in a pcDNA3.1 expression vector. An N‐terminal nanoluciferase (NLuc)‐labeled human A2AR receptor constructs (NLuc‐A2AR) was then generated in frame with the full length NLuc incorporating a rat 5‐HT3A membrane localisation signal sequence in pcDNA3.1 as described previously.[37] For transient transfections, HEK293G cells were seeded at 20000 cells/well into white walled, clear bottomed 96‐wells plates (Greiner Bio‐One, Stonehouse, UK), coated with 10 μg/mL poly‐D‐lysine, in 100 μL medium/well and incubated at 37°C and 5% CO2 for 18–24 h. […]
Saturation and competition binding assays were performed as previously described.[36] […] The resulting bioluminescence resonance energy transfer (BRET) was measured using a PHERAstar FS plate reader (BMG Labtech) at 37°C. For each well, filtered light emissions at 460 nm (80 nm bandpass) and >610 nm (longpass) for the BODIPY630/650 ligand were simultaneously measured. BRET ratios were calculated by dividing the 610 nm emission by the 460 nm emission. […] For kinetic experiments, cells were preincubated for 10 min with 1:400 dilution of furimazine prior to addition of 200 nM PSB603‐BY630 and BRET ratios determined every 0.5 min. […]

The target in assay [4] is T4, human NLuc‐A3R (Homo sapiens, UniProt P0DMS8).
T4 construct: expressed in transfected cells
T4 sequence (P0DMS8 1-318): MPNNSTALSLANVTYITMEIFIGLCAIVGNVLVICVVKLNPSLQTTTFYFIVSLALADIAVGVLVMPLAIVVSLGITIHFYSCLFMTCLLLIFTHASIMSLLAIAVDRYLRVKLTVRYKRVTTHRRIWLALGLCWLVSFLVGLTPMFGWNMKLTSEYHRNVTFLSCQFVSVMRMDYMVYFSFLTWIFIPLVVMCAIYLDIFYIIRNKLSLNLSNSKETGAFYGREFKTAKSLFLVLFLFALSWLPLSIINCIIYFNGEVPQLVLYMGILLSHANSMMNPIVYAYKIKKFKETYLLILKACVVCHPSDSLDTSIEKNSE
The experiment in a line: NanoBRET saturation binding in stable HEK293G cell line expressing NLuc‐A3R. The conditions noted are these: non‐specific defined with 1 μM MRS‐1220; PSB603‐BY630 at concentrations up to 500 nM. As for the experimental part:
as §1
(BRET reads energy transfer from a luciferase to a nearby fluorophore.)

T3 sequence (P29274 whole entry): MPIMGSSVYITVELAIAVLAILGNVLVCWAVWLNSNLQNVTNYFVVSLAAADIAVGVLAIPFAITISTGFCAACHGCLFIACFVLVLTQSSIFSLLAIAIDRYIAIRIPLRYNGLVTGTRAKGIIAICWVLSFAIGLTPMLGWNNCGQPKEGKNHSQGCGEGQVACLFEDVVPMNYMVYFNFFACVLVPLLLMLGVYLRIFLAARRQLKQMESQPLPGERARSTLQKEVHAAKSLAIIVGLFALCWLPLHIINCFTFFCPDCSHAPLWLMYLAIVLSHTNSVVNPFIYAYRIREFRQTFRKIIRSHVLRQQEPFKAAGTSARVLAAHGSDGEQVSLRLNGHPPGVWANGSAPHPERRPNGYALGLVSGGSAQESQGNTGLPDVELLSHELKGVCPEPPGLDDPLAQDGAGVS

Turning to `CCCn1c(=O)[nH]c2[nH]c(-c3ccc(S(=O)(=O)N4CCN(c5ccc(OCCNC(=O)CCCCCNC(=O)COc6ccc(/C=C/C7=[N+]8C(=Cc9ccc(-c%10cccs%10)n9[B-]8(F)F)C=C7)cc6)cc5)CC4)cc3)nc2c1=O` [PSB603‐BY630], the “effect on cAMP concentration‐response curve to BAY 60–6583” value in assay [1] is “small increase in the EC50 for BAY 60–6583”. Further, the “specific binding to NLuc‐A1R” value in assay [2] is “negligible”. The “specific binding to NLuc‐A2AR” value in assay [3] was “negligible”. In addition, in assay [4], the “specific binding to NLuc‐A3R” value is “negligible”.
